# Where two headings read alike, the source gives them in different places.
# Target: T1, isomerase (Mus musculus, UniProt Q91ZQ5)
# T1 construct: The recovery of 11-cis-retinal after bleaching can be used to estimate the activity of isomerase in vivo; from tissue; host or cells: eyes of living CD-1 and Balb/c male mice
# T1 sequence (Q91ZQ5 1-533): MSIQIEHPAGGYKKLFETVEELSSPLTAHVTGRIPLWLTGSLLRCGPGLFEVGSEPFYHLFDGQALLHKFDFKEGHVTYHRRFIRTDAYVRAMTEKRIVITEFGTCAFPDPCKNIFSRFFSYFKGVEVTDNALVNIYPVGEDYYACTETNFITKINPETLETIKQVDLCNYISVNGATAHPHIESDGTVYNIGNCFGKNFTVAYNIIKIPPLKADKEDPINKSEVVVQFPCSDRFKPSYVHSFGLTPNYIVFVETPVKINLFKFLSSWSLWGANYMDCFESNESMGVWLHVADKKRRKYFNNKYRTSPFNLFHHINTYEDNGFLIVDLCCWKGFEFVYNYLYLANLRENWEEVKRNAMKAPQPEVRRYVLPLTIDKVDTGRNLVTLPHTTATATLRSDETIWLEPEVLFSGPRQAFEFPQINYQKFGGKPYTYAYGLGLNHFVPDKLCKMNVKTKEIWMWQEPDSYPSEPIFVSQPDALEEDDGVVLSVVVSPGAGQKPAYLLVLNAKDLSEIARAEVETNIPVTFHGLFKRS
# Experiment: In vivo murine isomerase assay (recovery of 11-cis-retinal after photobleaching)
# Parameters: species or system mice
# Conditions: for isomerase inhibitory activity / inhibition at 1 mg/kg / inhibition at 5 mg/kg: CD1 male mice; for inhibition at 1 mg/kg / inhibition at 5 mg/kg / inhibition in vivo at 1 mg/kg / inhibition in vivo at 5 mg/kg: mouse; for inhibition at 1 mg/kg / inhibition at 5 mg/kg: po; for inhibition in vivo at 1 mg/kg / inhibition in vivo at 5 mg/kg: read-out: % Inibition
# Protocol: The capability of alkynyl phenyl-linked amine derivatives to inhibit isomerase is determined by an in vivo murine isomerase assay. Brief exposure of the eye to intense light (“photobleaching” of the visual pigment or simply “bleaching”) is known to photo-isomerize almost all 11-cis-retinal in the retina. The recovery of 11-cis-retinal after bleaching can be used to estimate the activity of isomerase in vivo. Delayed recovery, as represented by lower 11-cis-retinal oxime levels, indicates inhibition of isomerization reaction. Procedures were performed essentially as described by Golczak et al., Proc. Natl. Acad. Sci. […] See also Deigner et al., Science, 244: 968-71 (1989); […] Parish, et al., Proc. Natl. Acad. Sci. USA, 14609-13 (1998); […] Six-week old dark-adapted CD-1 (albino) male mice were orally gavaged with compound (0.03-3 mg/kg) dissolved in 100 μl corn oil containing 10% ethanol (five animals per group). […] After 2-24 hours in the dark, the mice were exposed to photobleaching of 5,000 lux of white light for 10 minutes. The mice were allowed to recover 2 hours in the dark. The animals were then sacrificed by carbon dioxide inhalation. Retinoids were extracted from the eye and the regeneration of 11-cis-retinal was assessed at various time intervals. All steps were performed in darkness with minimal redlight illumination (low light darkroom lights and […] flashlights for spot illumination as needed) (see, e.g., Maeda et al., J. Neurochem 85:944-956, 2003; Van Hooser et al., J Biol Chem 277:19173-82, 2002). After the mice were sacrificed, the eyes were immediately removed and placed in liquid nitrogen for storage. The eyes were placed in 500 μL of bis-tris propane buffer (10 mM, pH 7.3) and 20 μL of 0.8M hydroxile amine (pH-7.3). The eyes were cut up into small pieces with small iris scissors and then thoroughly homogenized at 30000 rpm with a mechanical homogenizer (Polytron PT 1300 D) in the tube until no visible tissue remained. 500 μL of methanol and 500 μL of heptane were added to each tube. The tubes were attached to a vortexer so that the contents were mixed thoroughly for 15 minutes in room temperature. […] The samples were analyzed on an Agilent 1100 HPLC system with normal phase column: SILICA (Beckman Coutlier, dp 5 μm, […]). The running method has a flow rate of 1.5 ml/min; solvent components are 15% solvent 1 (1% isopropanol in ethyl acetate), and 85% solvent 2 (100% hexanes). Loading volume for each sample is 100 μl; detection wavelength is 360 nm. The area under the curve for 11-cis retinal oxime was calculated by Agilent Chemstation software and was recorded manually. Data processing was performed using Prizm software. Positive control mice (no compound administered) were sacrificed fully dark-adapted and the eye retinoids analyzed. Light (bleached) control mice (no compound administered) were sacrificed and retinoids isolated and analyzed immediately after light treatment. […] Animals that received Compound 19 HCl were orally dosed with 0.01 and 1 mg/kg of compound in sterile water as solution, and photobleached 4 hours after dosing. Recovery and retinoid analysis were performed as described above. Dark control mice were vehicle-only treated, sacrificed fully dark adapted without light treatment, and analyzed. […] A time course study was performed to determine the isomerase inhibitory activity of Compounds 2, 18 and 19. Male Balb/c mice (4/group) received 3 mg Compound 2-HCl, Compound 18-HCl or Compound 19-HCl (in water) per kg bodyweight orally, by gavage. The animals were then “photo-bleached” (5000 Lux white light for 10 minutes) at 2, 4, 8, 16 and 24 hours after dosing, and returned to darkness to allow recovery of the 11-cis-retinal content of the eyes. Mice were sacrificed 2 hours after bleaching, eyes were enucleated, and retinoid content was analyzed by HPLC. A single dose study of the compound of Example 36 (Compound 36) was performed, at 1 mg/kg and 5 mg/kg oral dosing, 2, 4, 6, and 24 hours post bleaching. […]
Structure (SMILES),inhibition in vivo at 1 mg/kg (4 h),inhibition in vivo at 1 mg/kg (24 h),also measured
"COc1ccccc1C#Cc1cccc(CCCN)c1 [Example 36, 3-(3-((2-Methoxyphenyl)Ethynyl)Phenyl)Propan-1-Amine]",,,"isomerase inhibitory activity (1 mg/kg single oral dose): inactive; isomerase inhibitory activity (5 mg/kg single oral dose, at 24 h): full recovery; inhibition at 1 mg/kg (1 mg/kg single oral dose, 2 h): 6%; inhibition at 1 mg/kg (1 mg/kg single oral dose, 6 h): 5%; inhibition at 1 mg/kg (1 mg/kg single oral dose, 24 h): 0%; inhibition at 5 mg/kg (5 mg/kg single oral dose, 2 h): 46%; inhibition at 5 mg/kg (5 mg/kg single oral dose, 6 h): 45%; inhibition at 5 mg/kg (5 mg/kg single oral dose, 24 h): 0%"
"NCCCc1cccc(C#Cc2ccccc2)c1 [Example 37, 3-(3-(Phenylethynyl)phenyl)propan-1-amine]",23%,9%,inhibition in vivo at 5 mg/kg (4 h): 73%; inhibition in vivo at 5 mg/kg (24 h): 0%
"NCCCc1cccc(C#CC2CCCC2)c1 [Example 38, 3-(3-(Cyclopentylethynyl)phenyl)propan-1-amine]",0%,0%,inhibition in vivo at 5 mg/kg (4 h): 8%; inhibition in vivo at 5 mg/kg (24 h): 1%
"NCCC(O)c1cccc(C#CC2CCCC2)c1 (stereo not drawn) [Example 47, 3-Amino-1-(3-(cyclopentylethynyl)phenyl)propan-1-ol]",100%,2%,
"NCCC(O)c1cccc(C#CCCCCO)c1 (stereo not drawn) [Example 50, 6-(3-(3-Amino-1-hydroxypropyl)phenyl)hex-5-yn-1-ol]",13%,31%,
"NCCC(O)c1cccc(C#CCCO)c1 (stereo not drawn) [Example 51, 4-(3-(3-Amino-1-hydroxypropyl)phenyl)but-3-yn-1-ol]",0%,0%,
"NCCC(O)c1cccc(C#CC2CCCCC2)c1 (stereo not drawn) [Example 52, 3-Amino-1-(3-(Cyclohexylethynyl)Phenyl)Propan-1-ol]",72%,2%,
"COc1ccccc1C#Cc1cccc(C(O)CCN)c1 (stereo not drawn) [Example 54, 3-Amino-1-(3-((2-Methoxyphenyl)Ethynyl)Phenyl)Propan-1-ol]",67%,58%,
"NCCOc1cccc(C#CC2(O)CCSCC2)c1 [Example 55, 4-((3-(2-Aminoethoxy)Phenyl)Ethynyl)Tetrahydro-2H-Thiopyran-4-ol]",16%,7%,
"NCCOc1cccc(C#CC2(O)CCCCC2)c1 [Example 57, 1-((3-(2-Aminoethoxy)phenyl)ethynyl)cyclohexanol]",8%,21%,
"NCCC(O)c1cccc(C#CC2(O)CCCCCC2)c1 (stereo not drawn) [Example 59, 1-((3-(3-Amino-1-hydroxypropyl)phenyl)ethynyl)cycloheptanol]",31%,0%,
"CC(=O)NCCCc1cccc(C#CC2(O)CCCCC2)c1 [Example 60, N-(3-(3-((1-Hydroxycyclohexyl)Ethynyl)Phenyl)Propyl)Acetamide]",10%,9%,
"NCCCc1cccc(C#Cc2ccccn2)c1 [Example 61, 3-(3-(Pyridin-2-ylethynyl)phenyl)propan-1-amine]",0%,0%,
"NCCOc1cccc(C#Cc2cccnc2)c1 [Example 62, 2-(3-(Pyridin-3-ylethynyl)phenoxy)ethanamine]",0%,0%,
"NCCCc1cccc(C#Cc2ccncc2)c1 [Example 63, 3-(3-(Pyridin-4-ylethynyl)phenyl)propan-1-amine]",11%,0%,
"NCCC(O)c1cccc(C#CCCc2ccccc2)c1 (stereo not drawn) [Example 69, 3-Amino-1-(3-(4-phenylbut-1-ynyl)phenyl)propan-1-ol]",81%,10%,
"NCCOc1cccc(C#CCCCCO)c1 [Example 74, 6-(3-(2-Aminoethoxy)phenyl)hex-5-yn-1-ol]",8%,0%,
"NCCOc1cccc(C#CC2(O)CCCCCC2)c1 [Example 78, 1-((3-(2-aminoethoxy)phenyl)ethynyl)-cycloheptanol]",0%,0%,
"NCCOc1cccc(C#CC2CCCC2)c1 [Example 79, 2-(3-(Cyclopentylethynyl)phenoxy)-ethanamine]",7%,1%,
"NCCOc1cccc(C#CC2CCCCC2)c1 [Example 80, 2-(3-(Cyclohexylethynyl)phenoxy)ethanamine]",22%,0%,
"NCCOc1cccc(C#Cc2ccccc2)c1 [Example 81, 2-(3-(Phenylethynyl)phenoxy)-ethanamine]",8%,3%,
"NCCC(O)c1cccc(C#CC2(O)CCCCC2)c1 (stereo not drawn) [Example 99, 1-((3-(3-Amino-1-hydroxypropyl)phenyl)ethynyl)cyclohexanol]",31%,0%,

# Reference: patent US8492589B2, “Alkynyl phenyl derivative compounds for treating ophthalmic diseases and disorders” (Acucela Inc., priority 2007, dated 2013)
